Measurements: PubChem BioAssay AID1259407 (Chemical Carcinogenesis Research Information System (CCRIS), 2018)
Activity calls are given as the source filed them. How the calls were made is not given here.

Test system: CCRIS mutagenicity, Ames/micronucleus/aberration tests
Experiment: CCRIS mutagenicity studies
[1] = Test System: AMES SALMONELLA TYPHIMURIUM, Strain/Indicator: TA100, Metabolic Activation: NONE, Method: STANDARD PLATE

`CC(=O)Nc1ccc2c(ccc3ccccc32)c1` was tested, and the mutagenic call (Test System: CHINESE HAMSTER OVARY, Strain/Indicator: AS52/6-THIOGUANINE, Metabolic Activation: NONE) was “inactive; negative” and the mutagenic call (Test System: CHINESE HAMSTER OVARY, Strain/Indicator: AS52/6-THIOGUANINE, Metabolic Activation: RAT LIVER S-9, 2-ACETYLAMINOFLUORINE) was “active; positive”.
In the case of `CS(=O)(=O)N1C2c3ccccc3-c3ccccc3C21` (stereo not drawn), the mutagenic call [1] is reported as “active; positive” and the mutagenic call (Test System: CHINESE HAMSTER V-79, Strain/Indicator: V-79/6-THIOGUANINE, Metabolic Activation: NONE, Method: STANDARD PLATE) is reported as “inactive; negative”.
For `COc1cc(S(=O)(=O)O)c(C)cc1N=Nc1c(O)ccc2cc(S(=O)(=O)O)ccc12`, the mutagenic call (Test System: AMES SALMONELLA TYPHIMURIUM, Strain/Indicator: TA98, Metabolic Activation: NONE, Method: PREINCUBATION) was “inactive; negative”, the mutagenic call (Test System: AMES SALMONELLA TYPHIMURIUM, Strain/Indicator: TA98, Metabolic Activation: NONE, Method: STANDARD PLATE) was “inactive; negative” and the mutagenic call (Test System: AMES SALMONELLA TYPHIMURIUM, Strain/Indicator: TA98, Metabolic Activation: RAT LIVER S-9, AROCLOR 1254, Method: STANDARD PLATE) was “inactive; negative”. The mutagenic call (Test System: AMES SALMONELLA TYPHIMURIUM, Strain/Indicator: TA98, Metabolic Activation: S-9, Method: PREINCUBATION) was “inactive; negative”, the mutagenic call (Test System: AMES SALMONELLA TYPHIMURIUM, Strain/Indicator: TA100, Metabolic Activation: NONE, Method: PREINCUBATION) was “inactive; negative” and the mutagenic call [1] was “inactive; negative”. The mutagenic call (Test System: AMES SALMONELLA TYPHIMURIUM, Strain/Indicator: TA100, Metabolic Activation: RAT LIVER S-9, AROCLOR 1254, Method: STANDARD PLATE) was “inactive; negative” and the mutagenic call (Test System: AMES SALMONELLA TYPHIMURIUM, Strain/Indicator: TA100, Metabolic Activation: S-9, Method: PREINCUBATION) was “inactive; negative”.
`COC1=CC(=O)C=CC1=Nc1c2ccccc2nc2ccccc12` was tested, and the mutagenic call (Test System: AMES SALMONELLA TYPHIMURIUM, Strain/Indicator: TA1537, Metabolic Activation: NONE, Method: STANDARD PLATE) was “inactive; negative”.
